Test results reported in patent publication US4806537A (City of Hope, priority 1988, dated 1989).
Like-named read-outs stand apart in the source and are kept apart here.

What was measured:
[1] = tested on: K^+ transport; experiment: K^+ transport: ^86 Rb uptake by P3 membrane fractions of whole mouse brain; assay type: biochemical, Swiss mice; conditions: for IC50: ^86 Rb uptake, P3 fraction, 0° C., pH 7, 5 seconds; for K^+ transport inhibition activity relative to amodiaquin (in words): fraction of amodiaquin's activity; for K^+ Transport Relative Potency: relative to amodiaquin = 1; for Concentration inhibiting K^+ transport (selection criterion met): submillimolar concentrations
Procedure: To obtain the data set forth in Table I, K^+ -transport was measured using P3 membrane fractions prepared from whole brains of Swiss mice. […] The resulting supernatant was centrifuged at 17,000 g for 15 minutes, and the supernatant from the latter was centrifuged at 70,000 g for 1 hour to pellet the P3 fraction. The P3 pellet was washed by resuspension in 50 mM Tris-citrate (pH 7.3). After 10 minutes on ice, the suspension was centrifuged at 70,000 g for 10 minutes. This washing procedure was repeated twice using distilled water for the resuspension. […] The suspension (2-3 mg protein/ml) was stabilized on ice for 1 hour prior to use. Uptake of ^86 Rb (radioactive) was used to assess the K^+ -transport of the P3 articles. Many published experiments have shown the ^86 Rb, with a half-life 36 times longer than ^42 K, is a suitable tracer for K. Rb permeates neuronal K channels as well as does K itself.
After filtration of the samples, the filters were washed rapidly three times with 10^-3 M triethanolamine containing 0.1M RbCl (non-radioactive) and counted in ACS liquid scintillation cocktail (Amersham). In calculating the results, the uptake found in the presence of 0.1M non-radioactive RbCl was subtracted from that found in the presence of various concentrations of the test substances in the presence of 10^-6 M ^86 RbCl alone. […] Between 0.2 and 0.5 mg/ml usually were employed. The results were normalized by calculating them as percentages of the uptake observed with 10^-6 M ^86 RbCl alone.

[2] = molecular target: T1, Acetylcholinesterase (Electrophorus electricus, UniProt O42275); experiment: Acetylcholinesterase activity, acetylthiocholine substrate, colorimetric (Ellman); assay type: biochemical, electric eel; conditions: for Cholinesterase inhibitory potency relative to amodiaquin (in words): fraction of amodiaquin's inhibitory potency; for Acetylcholinesterase Activity Rank Order: rank among the five substances; for Acetylcholinesterase Activity Relative Potency: relative to amodiaquin = 1
T1 construct: The enzyme employed was prepared from the electric organ of the electric eel; from tissue; host or cells: electric organ of the electric eel
Procedure: Cholinesterase activity reported in Table I was measured by a standard procedure. The enzyme employed was prepared from the electric organ of the electric eel. It is known to have the same properties as the enzyme of mammalian nervous tissue. Acetylthiocholine was used as substrate.
Inhibitory potency of substances was determined by measuring enzyme activity in the absence and presence of varying concentrations of the test substances.

[3] = tested on: patients with AD; conditions: cited from earlier work
[4] = tested on: mice; conditions: cited from earlier work
[5] = in vivo; cited from earlier work
[6] = tested on: cholinesterase; conditions: cited from earlier work

T1 sequence (O42275 24-633): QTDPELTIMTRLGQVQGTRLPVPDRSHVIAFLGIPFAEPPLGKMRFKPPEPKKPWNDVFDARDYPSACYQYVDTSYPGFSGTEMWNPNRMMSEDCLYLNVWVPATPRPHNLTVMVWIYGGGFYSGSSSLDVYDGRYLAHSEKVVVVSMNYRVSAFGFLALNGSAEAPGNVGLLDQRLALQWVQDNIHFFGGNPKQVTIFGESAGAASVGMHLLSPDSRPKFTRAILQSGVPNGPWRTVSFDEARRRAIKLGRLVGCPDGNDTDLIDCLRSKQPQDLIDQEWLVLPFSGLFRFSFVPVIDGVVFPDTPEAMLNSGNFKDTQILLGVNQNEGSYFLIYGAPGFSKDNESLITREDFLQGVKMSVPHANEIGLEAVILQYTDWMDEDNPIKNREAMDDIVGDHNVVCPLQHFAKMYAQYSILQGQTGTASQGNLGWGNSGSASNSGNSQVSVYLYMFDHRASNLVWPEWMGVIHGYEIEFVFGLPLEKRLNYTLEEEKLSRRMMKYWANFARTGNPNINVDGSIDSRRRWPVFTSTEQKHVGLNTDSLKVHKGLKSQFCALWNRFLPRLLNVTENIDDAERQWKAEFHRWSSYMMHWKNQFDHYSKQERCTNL

With Nc1c2ccccc2nc2ccccc12 [9-aminoacridine] the IC50 [1] was 70 µM.

With CCN(CC)CCCC(C)Nc1c2ccc(Cl)cc2nc2ccc(OC)cc12 (centres unmarked) [Quinacrine, quinacrine] the IC50 [1] was 90 µM, the “K^+ transport inhibition activity relative to amodiaquin (in words)” value [1] was “approximately one-half” and the “K^+ Transport Relative Potency” value [1] was 0.44. For the same compound, the “Concentration inhibiting K^+ transport (selection criterion met)” value [1] was ≤ 10^-3 M, the IC50 [2] was 4 µM and the “Cholinesterase inhibitory potency relative to amodiaquin (in words)” value [2] was “less than one-thousandth”. The “Acetylcholinesterase Activity Rank Order” value [2] was 4(5) and the “Acetylcholinesterase Activity Relative Potency” value [2] was 0.001.

For Nc1ccncc1 [4AP, 4-aminopyridine], the “Effect on symptoms of AD” value [3] is listed as “may improve symptoms in some patients with AD”, the “Effect on behavioral deficit produced by anoxia” value [4] is listed as “partially reversed the behavioral deficit” and the “Effect on general anesthesia” value [5] is listed as “rapidly overcomes the effects of general anesthesia”.

In the case of CCN(CC)CCCC(C)Nc1ccnc2cc(Cl)ccc12 (centres unmarked) [Chloroquine, chloroquine], the IC50 [1] is reported as 600 µM, the “K^+ transport inhibition activity relative to amodiaquin (in words)” value [1] is reported as “approximately one-twentieth” and the “K^+ Transport Relative Potency” value [1] is reported as 0.067. For the same compound, the “Concentration inhibiting K^+ transport (selection criterion met)” value [1] was ≤ 10^-3 M, the IC50 ([2]; electric eel enzyme, acetylthiocholine substrate, read-out: Acetylcholinesterase Activity IC50) was 4 µM and the “Cholinesterase inhibitory potency relative to amodiaquin (in words)” value [2] was “less than one-thousandth”. The “Acetylcholinesterase Activity Rank Order” value [2] was 5(4) and the “Acetylcholinesterase Activity Relative Potency” value [2] was 0.001.

In the case of CCN(CC)Cc1cc(Nc2ccnc3cc(Cl)ccc23)ccc1O [Amodiaquin, amodiaquin], the IC50 [1] is listed as 40 µM, the IC50 [2] is listed as 0.004 µM and the Cholinesterase inhibition [6] is listed as “effective cholinesterase inhibitor”.
